{"source": "patent US20020045780A1", "about": "“Biologically active spermidine analogues, pharmaceutical compositions and methods of treatment” (priority 1997, published 2002)", "key": {"[1]": {"biological_target": "polyamine transport apparatus", "conditions": "cited from earlier work; for Ki: inhibition of spermidine transport, L1210, read-out: Ki, corresponding tetraamine (in parentheses)"}, "[2]": {"test_system": "S-adenosylmethionine decarboxylase (AdoMetDC)", "conditions": "cited from earlier work; for AdoMetDC activity, corresponding tetraamine (in parentheses): L1210, 1 μM at 6 hours"}, "[3]": {"test_system": "L1210 cells", "conditions": "48 hours, cited from earlier work; for Analogue, corresponding tetraamine (in parentheses): intracellular amount"}, "[4]": {"test_system": "SSAT", "conditions": "MALME-3 cells; cited from earlier work"}, "[5]": {"test_system": "spermidine/spermine acetyltransferase (SSAT)", "conditions": "L1210, 2 μM at 48 hours (tetraamine analogues); cited from earlier work"}, "[6]": {"test_system": "L1210 cells", "conditions": "cited from earlier work"}, "[7]": {"test_system": "L1210 cells", "assay": "Metabolic transformation of polyamine analogues by L1210 cells", "type": "in vitro ADME, murine", "conditions": "48 hours", "description": "The cells were washed twice with cold RPMI-1640, and the pellet was treated with 0.6 N HClO4 (1 ml/10^7 cells). Polyamine contents of the perchloric acid extracts were quantitated by HPLC of the DANSYL derivatives [Bergeron et al, J. Med. Chem., Vol. 37, supra]."}, "[8]": {"test_system": "mice", "assay": "Acute toxicity in mice (single i.p. dose)", "type": "in vivo", "conditions": "female, CD-1, mouse, in vivo, 600 mg/kg", "description": "(§1) In the current study, the acute toxicity of six analogues and the chronic toxicity of two triamines were measured (Table 7). The value of all polyamine LD50s are shown in both mg/kg and mmol/kg for comparison. […] The animals were scored two hours after administration of the drug. It is clear that the acute LD50s for triamine analogues are approximately twice the acute LD50s for the corresponding tetraamine analogues.\n(§2) Acute and chronic toxicities were assessed in 10-12 week old CD-1 female mice from Harlan Sprague-Dawley. For acute toxicities, the polyamine analogues were administered in a single i.p. injection to groups of five or six animals at each dose. The animals were scored two hours after administration of the dose. All survivors were further observed for 10 days to assess late onset of toxicity from the single acute dose. In the chronic toxicity regimen, mice were administered polyamine analogue in three i.p. doses per day (t.i.d.) for six days, for a total of eighteen doses per animal. Appetite, weight and overall appearance were monitored daily. […] At least three test groups of 5-6 animals each, representing three different dose levels, were evaluated for each analogue tested. These dose levels were chosen so that at least two groups presented with lethalities, one with a high fraction of lethalities (>0.50, but <1.00)."}, "[9]": {"assay": "Acute toxicity in mice (single i.p. dose)", "type": "in vivo", "conditions": "female, CD-1, mouse, in vivo, ip", "description": "as §1, §2"}, "[10]": {"test_system": "ornithine decarboxylase (ODC)", "conditions": "cited from earlier work"}, "[11]": {"test_system": "L1210 cells", "assay": "L1210 growth inhibition, IC50 determination", "type": "cell-based, murine", "conditions": "Mus musculus", "description": "Murine L1210 leukemia cells (ATCC CCL 219) were maintained in logarithmic growth in RPMI-1640 medium containing 10% fetal calf serum or a semi-synthetic equivalent, NuSerum, 2% HEPES-MOPS buffer and 1 mM aminoguanidine."}, "[12]": {"test_system": "spermidine/spermine acetyltransferase (SSAT)", "assay": "SSAT activity in treated L1210 cells", "type": "cell-based, murine", "conditions": "L1210, 10 μM at 48 hours (triamine analogues)", "source_text": "Spermidine/spermine N^1-acetyltransferase activity was based on quantitation of [^14C]-N^1-acetylspermidine formed by acetylation of SPD with [^14C] acetyl coenzyme A according to the method of Libby et al [Biochem. Pharmacol., Vol. 38, supra]. Cells treated with DENSPM were positive controls."}, "[13]": {"test_system": "L1210 cells", "assay": "Polyamine pool analysis in L1210 cells", "type": "cell-based, murine", "conditions": "Mus musculus, L1210, 48 h, % of untreated control", "outline": "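Cells were exposed to each analogue for 48 h at two concentrations. Washed pellets were extracted with 0.6 N HClO4 (1 ml/10^7 cells), and polyamines were quantified by HPLC of dansyl derivatives.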"}, "[14]": {"test_system": "laboratory animals", "conditions": "early studies in laboratory animals; cited from earlier work"}, "[15]": {"test_system": "polyamine transport apparatus", "assay": "Competitive uptake determination: inhibition of [3H]spermidine transport into L1210 cells", "type": "cell-based, murine", "conditions": "analogue inhibition of spermidine transport", "outline": "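Analogues competed with [3H]spermidine for uptake into L1210 cells. Values are Ki, derived from Lineweaver–Burk analysis as competitive inhibition with respect to spermidine.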"}, "[16]": {"test_system": "ornithine decarboxylase (ODC)", "assay": "ODC activity in treated L1210 cells", "type": "cell-based, murine", "conditions": "L1210, 1 μM at 4 hours", "outline": "(§3)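 L1210 cells treated with triamines; ODC activity measured at 4 h and AdoMetDC at 6 h as ^14CO2 released from [^14C]-carboxyl-labeled L-ornithine (ODC) or S-adenosyl-L-methionine (AdoMetDC). Untreated cells served as controls and DEHSPM-treated cells as positive controls.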"}, "[17]": {"test_system": "S-adenosylmethionine decarboxylase (AdoMetDC)", "assay": "AdoMetDC activity in treated L1210 cells", "type": "cell-based, murine", "conditions": "L1210, 1 μM at 6 hours", "outline": "as §3"}, "[18]": {"conditions": "L1210, 48 hour exposure, read-out: IC50 48 hour, corresponding tetraamine (in parentheses)"}, "[19]": {"conditions": "L1210, 96 hour exposure, read-out: IC50 96 hour, corresponding tetraamine (in parentheses)"}}, "note": "Like-named read-outs stand apart in the source and are kept apart here."}
{"molecule": "CCNCCCNCCCNCCCNCC", "note": "[DENSPM, N^1,N^11-diethylnorspermine]", "values": [{"measurement": "Ki", "setting": "[1]", "result": 17000, "unit": "nM"}, {"measurement": "Ki relative to those of DESPM and DEHSPM", "setting": "[1]; polyamine transport system", "result": "over 10 times"}, {"measurement": "AdoMetDC activity, corresponding tetraamine (in parentheses)", "setting": "[2]", "result": "42% of untreated control"}, {"measurement": "Put, corresponding tetraamine (in parentheses)", "setting": "[3]; % of untreated control, 10 μM", "result": "(30) %"}, {"measurement": "Spd, corresponding tetraamine (in parentheses)", "setting": "[3]; % of untreated control, 10 μM", "result": "(14) %"}, {"measurement": "Spm, corresponding tetraamine (in parentheses)", "setting": "[3]; % of untreated control, 10 μM", "result": "(31) %"}, {"measurement": "Analogue, corresponding tetraamine (in parentheses)", "setting": "[3]; 10 μM", "result": "(1.59) nmol/10^6 cells"}, {"measurement": "Analogue, corresponding tetraamine (in parentheses)", "setting": "[3]; 100 μM", "result": "(2.44) nmol/10^6 cells"}, {"measurement": "SSAT up-regulation", "setting": "[4]", "result": 1200, "unit": "fold"}, {"measurement": "SSAT activity, corresponding tetraamine (in parentheses)", "setting": "[5]", "result": "1500% of untreated control"}, {"measurement": "IC50", "setting": "[6]; [18]", "result": "> 100000", "unit": "nM"}, {"measurement": "IC50", "setting": "[6]; [19]", "result": 2000, "unit": "nM"}, {"measurement": "Parent drug as % of total drug in the cell", "setting": "[7]; 500 μM analogue", "result": 95.3, "unit": "%"}, {"measurement": "Parent drug in L1210 cells", "setting": "[7]; 500 μM analogue", "result": 2440, "unit": "pmols/10^6"}]}
{"molecule": "CCNCCCNCCCCNCCCNCC", "note": "[DESPM, N^1,N^12-diethylspermine]", "values": [{"measurement": "Ki", "setting": "[1]", "result": 1600, "unit": "nM"}, {"measurement": "AdoMetDC activity, corresponding tetraamine (in parentheses)", "setting": "[2]", "result": "28% of untreated control"}, {"measurement": "Time at which reduction in AdoMetDC activity plateaued", "setting": "[2]; previous studies", "result": 6, "unit": "h"}, {"measurement": "Animals died within seven days", "setting": "[8]", "result": "5/5"}, {"measurement": "Death within the initial 2 hours", "setting": "[8]", "result": "no death"}, {"measurement": "LD50 at 2 h", "setting": "[9]", "result": 842, "unit": "µmol/kg"}, {"measurement": "SSAT up-regulation", "setting": "[4]", "result": 250, "unit": "fold"}, {"measurement": "SSAT activity, corresponding tetraamine (in parentheses)", "setting": "[5]", "result": "460% of untreated control"}, {"measurement": "IC50", "setting": "[6]; [18]", "result": 30000, "unit": "nM"}, {"measurement": "IC50", "setting": "[6]; [19]", "result": 180, "unit": "nM"}, {"measurement": "Time at which reduction in ODC activity plateaued", "setting": "[10]; previous studies", "result": 4, "unit": "h"}]}
{"molecule": "CCCNCCCNCCCCNCCCNCCC", "note": "[DPSPM]", "values": [{"measurement": "Ki", "setting": "[1]", "result": 2300, "unit": "nM"}, {"measurement": "AdoMetDC activity, corresponding tetraamine (in parentheses)", "setting": "[2]", "result": "72% of untreated control"}, {"measurement": "Put, corresponding tetraamine (in parentheses)", "setting": "[3]; % of untreated control, 15 μM", "result": "(0) %"}, {"measurement": "Analogue, corresponding tetraamine (in parentheses)", "setting": "[3]; 3 μM", "result": "(1.12) nmol/10^6 cells"}, {"measurement": "Analogue, corresponding tetraamine (in parentheses)", "setting": "[3]; 15 μM", "result": "(1.09) nmol/10^6 cells"}, {"measurement": "SSAT activity, corresponding tetraamine (in parentheses)", "setting": "[5]", "result": "500% of untreated control"}, {"measurement": "IC50", "setting": "[6]; [18]", "result": 3000, "unit": "nM"}, {"measurement": "IC50", "setting": "[6]; [19]", "result": 200, "unit": "nM"}, {"measurement": "ODC activity, corresponding tetraamine (in parentheses)", "setting": "[10]; L1210, 1 μM at 4 hours", "result": "52% of untreated control"}, {"measurement": "Parent drug as % of total drug in the cell", "setting": "[7]; 15 μM analogue", "result": 79.0, "unit": "%"}, {"measurement": "Parent drug in L1210 cells", "setting": "[7]; 15 μM analogue", "result": 1568, "unit": "pmols/10^6"}]}
{"molecule": "NCCCCNCCCN", "note": "[SPD, spermidine]", "values": [{"measurement": "IC50", "setting": "[11]; L1210, 48 h, L1210, 48 hour exposure, read-out: IC50 48 hour", "result": "> 100000", "unit": "nM"}, {"measurement": "IC50", "setting": "[11]; L1210, 96 h, L1210, 96 hour exposure, read-out: IC50 96 hour", "result": "> 100000", "unit": "nM"}, {"measurement": "SSAT activity, percent of untreated control", "setting": "[12]", "result": "160% of untreated control"}, {"measurement": "activity at 100 µM", "setting": "[13]; read-out: Put", "result": 0, "unit": "%"}, {"measurement": "activity at 100 µM", "setting": "[13]; read-out: Spd", "result": 117, "unit": "%"}, {"measurement": "activity at 100 µM", "setting": "[13]; read-out: Spm", "result": 118, "unit": "%"}, {"measurement": "activity at 500 µM", "setting": "[13]; read-out: Put", "result": 0, "unit": "%"}, {"measurement": "activity at 500 µM", "setting": "[13]; read-out: Spd", "result": 145, "unit": "%"}, {"measurement": "activity at 500 µM", "setting": "[13]; read-out: Spm", "result": 108, "unit": "%"}, {"measurement": "Nephrotoxicity relative to spermine", "setting": "[14]", "result": "approximately one-twentieth as nephrotoxic as spermine"}, {"measurement": "Ki", "setting": "[15]", "result": 2200, "unit": "nM"}, {"measurement": "ODC activity, percent of untreated control", "setting": "[16]", "result": "16% of untreated control"}, {"measurement": "AdoMetDC activity, percent of untreated control", "setting": "[17]", "result": "43% of untreated control"}]}
